Source: US20240261302A1, “METHODS OF TREATING NEURODEGENERATIVE DISEASES OR CONDITIONS” (FloraScience Inc., priority 2023, published 2024)

Key:
HT22 cells [1] = assay: Ferroptosis Assay (RSL3-induced cell death, MTT); assay type: cell-based, mouse; settings: Mus musculus, HT-22; HT22 cells, 1 hr pretreatment, 50 nM RSL3, 16 hr, MTT; read-out: Observed EC50 RSL3
Method: Ferroptosis Assay: HT22 cells were seeded at 3,000 cells/well in 96-well tissue culture plates in DMEM plus 10% FBS and 1% antibiotics. After 24 hr of plating, the cells were pretreated with different concentrations of test compounds or a vehicle control for 1 hr followed by coincubation with 50 nM RSL3 to induce the cell death cascade. After 16 hr of treatment, cell viability was measured by the MTT assay. Optical absorbance was measured at 570 nm on a SpectraMax M5 microplate reader. Samples were analyzed in eight to sixteen wells per independent experiment (n=8-16). Results were presented as the percentage of the controls with vehicle alone.

HT22 cells [2] = assay: Oxytosis/ferroptosis assay with erastin (Table 2); assay type: cell-based; settings: Mus musculus, HT-22; erastin as inducer; method not given; read-out: Observed EC50 erastin

`CCCCCc1cc(O)c(-c2cccc(C)c2)c(O)c1` [4-DI-CBND, 3′-methyl-4-pentyl-[1,1′-biphenyl]-2,6-diol] was tested, and the EC50 (HT22 cells [1]) was 4.2 µM and the EC50 (HT22 cells [2]) was 9.6 µM.

`CCCCCc1cc(O)c2c(c1)OC(C)(C)c1ccc(CO)cc1-2` [11-OH-CBN, 9-(hydroxymethyl)-6,6-dimethyl-3-pentyl-6H-benzo[c]chromen-1-ol] showed an EC50 (HT22 cells [1]) of 1.3 µM and an EC50 (HT22 cells [2]) of 4.7 µM.

Compound `C=C(C)[C@@H]1CCC(C)=C[C@H]1c1c(O)cc(O)cc1CCCCC` [Abn-CBD, 4-[(1R,6R)-3-methyl-6-(1-methylethenyl)-2-cyclohexen-1-yl]-5-pentyl-1,3-benzenediol] has an EC50 (HT22 cells [1]) of 3.9 µM and an EC50 (HT22 cells [2]) of 8 µM.

`CCCc1cc(O)cc2c1-c1cc(C)ccc1C(C)(C)O2` [Abn-CBNV, 6,6,9-trimethyl-1-propyl-6H-benzo[c]chromen-3-ol] was tested, and the EC50 (HT22 cells [1]) was 4.9 µM and the EC50 (HT22 cells [2]) was 9.5 µM.

`CCCCCc1cc(O)c2c(c1)OC(C)(CCC=C(C)C)C=C2` (stereo not shown) [CBC, 2-Methyl-2-(4-methylpent-3-enyl)-7-pentyl-5-chromenol] showed an EC50 (HT22 cells [1]) of 1.1 µM and an EC50 (HT22 cells [2]) of 8.7 µM.

With `C=C(C)[C@@H]1CCC(C)=C[C@H]1c1c(O)cc(CCCCC)cc1O` [CBD, 2-[(1R,6R)-6-Isopropenyl-3-methylcyclohex-2-en-1-yl]-5-pentylbenzene-1,3-diol] the EC50 (HT22 cells [1]) was 0.86 µM and the EC50 (HT22 cells [2]) was 8.8 µM.

For `C=C(C)C1CCC(C)=CC1c1c(OC(C)=O)cc(CCCCC)cc1OC(C)=O` (stereo not shown) [CBD-(OAc)2, 5′-methyl-4-pentyl-2′-(prop-1-en-2-yl)-1′,2′,3′,4′-tetrahydro-[1,1′-biphenyl]-2,6-diyl diacetate], the EC50 (HT22 cells [1]) was 2.4 µM and the EC50 (HT22 cells [2]) was 9.1 µM.

In the case of `C=C(C)[C@@H]1CCC(C)=C[C@H]1c1c(O)cc(CCCCC)c(C(=O)O)c1O` [CBDA, (1′R,2′R)-2,6-Dihydroxy-5′-methyl-4-pentyl-2′-(prop-1-en-2-yl)-1′,2′,3′,4′-tetrahydro[1,1′-biphenyl]-3-carboxylic acid], the EC50 (HT22 cells [1]) is reported as 9.3 µM and the EC50 (HT22 cells [2]) is reported as greater than 10 µM.

Work on `C=C(C)[C@@H]1CCC(C)=C[C@H]1c1c(O)cc(CCC)cc1O` [CBDV, 2-[(1R,6R)-6-Isopropenyl-3-methylcyclohex-2-en-1-yl]-5-propylbenzene-1,3-diol] yielded an EC50 (HT22 cells [1]) of 1 µM and an EC50 (HT22 cells [2]) of 3.8 µM.

With `C=C(C)[C@@H]1CC[C@](C)(O)[C@H]2Oc3cc(CCCCC)cc(O)c3[C@@H]12` [CBE, (5aS,6S,9R,9aR)-6-methyl-3-pentyl-9-prop-1-en-2-yl-7,8,9,9a-tetrahydro-5aH-dibenzofuran-1,6-diol] the EC50 (HT22 cells [1]) was greater than 10 µM and the EC50 (HT22 cells [2]) was greater than 10 µM.

`CCCCCc1cc(O)c2c(c1)oc1c(C)ccc(C(C)C)c12` [CBF, 5-isopropyl-8-methyl-2-pentyl-9-oxa-4-fluorenol] was tested, and the EC50 (HT22 cells [1]) was 0.15 µM and the EC50 (HT22 cells [2]) was 0.31 µM.

In the case of `CCCCCc1cc(O)c(C/C=C(\C)CCC=C(C)C)c(O)c1` [CBG, 2-[(2E)-3,7-Dimethylocta-2,6-dienyl]-5-pentyl-benzene-1,3-diol], the EC50 (HT22 cells [1]) is reported as 3.2 µM and the EC50 (HT22 cells [2]) is reported as 10.8 µM.

In the case of `CCCCCc1cc(O)c(C/C=C(\C)CCC=C(C)C)c(O)c1C(=O)O` [CBGA, 3-[(2E)-3,7-Dimethylocta-2,6-dien-1-yl]-2,4-dihydroxy-6-pentylbenzoic acid], the EC50 (HT22 cells [1]) is reported as greater than 10 µM and the EC50 (HT22 cells [2]) is reported as greater than 10 µM.

With `CCCCCc1cc(O)c2c(c1)OC1(C)CCC3C1C2C3(C)C` (stereo not drawn) [CBL, (1aR-(1a alpha,3a alpha,8b alpha,8calpha))-1a,2,3,3a,8b,8c-hexahydro-1,1,3a-trimethyl-6-pentyl-1H-4-oxabenzo(f)-cyclobut(cd)inden-8-ol] the EC50 (HT22 cells [1]) was 0.77 µM and the EC50 (HT22 cells [2]) was 3.3 µM.

`Cc1cc(O)c2c(c1)OC(C)(C)c1ccc(C)cc1-2` [CBN-C1, 3-methyl-6,6,9-trimethyl-6H-benzo[c]chromen-1-ol] showed an EC50 (HT22 cells [1]) of 2.2 µM and an EC50 (HT22 cells [2]) of 6.9 µM.

`CCc1cc(O)c2c(c1)OC(C)(C)c1ccc(C)cc1-2` [CBN-C2, 3-ethyl-6,6,9-trimethyl-6H-benzo[c]chromen-1-ol] showed an EC50 (HT22 cells [1]) of 1.8 µM and an EC50 (HT22 cells [2]) of 5.6 µM.

With `CCCCc1cc(O)c2c(c1)OC(C)(C)c1ccc(C)cc1-2` [CBN-C4, 3-butyl-6,6,9-trimethyl-6H-benzo[c]chromen-1-ol] the EC50 (HT22 cells [1]) was 1.1 µM and the EC50 (HT22 cells [2]) was 2.1 µM.

`CCCCCCc1cc(O)c2c(c1)OC(C)(C)c1ccc(C)cc1-2` [CBN-C6, 3-hexyl-6,6,9-trimethyl-6H-benzo[c]chromen-1-ol] was tested, and the EC50 (HT22 cells [1]) was 0.9 µM and the EC50 (HT22 cells [2]) was 2 µM.

Compound `CCCCCCCc1cc(O)c2c(c1)OC(C)(C)c1ccc(C)cc1-2` [CBN-C7, 3-heptyl-6,6,9-trimethyl-6H-benzo[c]chromen-1-ol] has an EC50 (HT22 cells [1]) of 2 µM and an EC50 (HT22 cells [2]) of 3.8 µM.

With `CCCCCc1cc(OC(C)=O)c2c(c1)OC(C)(C)c1ccc(C)cc1-2` [CBN-OAc, 1-acetoxy-6,6,9-trimethyl-3-pentyl-benzo[c]chromene] the EC50 (HT22 cells [1]) was 1.3 µM and the EC50 (HT22 cells [2]) was 1.9 µM.
